Experimental data reported in US20230219886A1, “NOVEL SELENO-NSAID ANALOGS AND USES THEREOF” (THE PENN STATE RESEARCH FOUNDATION, priority 2020, published 2023).
Where two headings read alike, the source gives them in different places.

How the values were obtained:
[1] = test system: PANC-1 (pancreatic carcinoma); experiment: MTT cell viability assay, Panc-1; details: Homo sapiens, PANC-1, 48 h, read-out: cell viability
Protocol: (§1) Cell Culture Conditions. The cell lines were obtained from the American Type Culture Collection (ATCC). PANC-1 and Caco-2 cell lines were maintained in DMEM medium (Gibco); HT-29, HCT-116 and RKO cells were maintained in McCoy's 5A medium (Gibco); and DU-145 and H1299 cells were maintained in RPMI 1640 medium (Gibco), supplemented with 10% fetal bovine serum (FBS; Gibco) and 1% antibiotics (10.00 units/mL penicillin and 10.00 mg/mL streptomycin; Gibco). Cells were preserved in tissue culture flasks at 37° C. and 5% CO2. Culture medium was replaced every three days.
(§2) Cell Viability Assay. The effect of each compound on cell viability was tested using the MTT assay (81). Briefly, 9000 cells/well were grown in 96-well plates for 12 h. Then these cells were incubated with either DMSO (control) or nine different concentration between 0.01-50 μM of the test compounds for 24, 48, and 72 h. Three hours before the termination point, 20 μL of MTT were added to measure cellular viability. The resultant formazan crystals were dissolved in 50 μL of DMSO, and absorbance was measured at 570 nm and 630 nm wavelengths. IC50, GI50, TGI and LC50 values were calculated using OriginPro 8.5.1.
(§3) Evaluation of the antiproliferative activities of the novel molecules. […] These four cell lines were treated with each compound at three concentrations (5, 25 and 50 μM) for 48 h.

[2] = test system: HT-29 (CRC); experiment: MTT cell viability assay, HT-29; details: for GI50 / IC50 / viability at 5 µM / viability at 25 µM / viability at 50 µM: Homo sapiens; for viability at 5 µM / viability at 25 µM / viability at 50 µM: read-out: cell viability
Protocol: as §1, §2, §3

[3] = test system: DU-145 (prostate carcinoma); experiment: MTT cell viability assay, DU-145; details: Homo sapiens, DU-145, 48 h, read-out: cell viability
Protocol: as §1, §2, §3

[4] = test system: H1299 (lung carcinoma); experiment: MTT cell viability assay, H1299; details: Homo sapiens, NCI-H1299, 48 h, read-out: cell viability
Protocol: as §1, §2, §3

[5] = test system: HCT-116 CRC cells; experiment: MTT cell viability assay, HCT-116; type: cell-based, human; details: Homo sapiens
Protocol: as §1, §2

[6] = test system: CACO-2 CRC cells; experiment: cells; details: for IC50: Homo sapiens
Protocol: as §1, §2

[7] = test system: RKO CRC cells; experiment: cells; details: Homo sapiens
Protocol: as §1, §2

| SMILES | viability at 5 µM [1] | viability at 25 µM [1] | viability at 50 µM [1] | IC50 ([2]; HT-29, 24 h) | IC50 ([2]; HT-29, 48 h) | viability at 5 µM ([2]; HT-29, 48 h) | viability at 25 µM ([2]; HT-29, 48 h) | viability at 50 µM ([2]; HT-29, 48 h) | IC50 ([2]; HT-29, 72 h) | viability at 5 µM [3] | viability at 25 µM [3] | viability at 50 µM [3] | viability at 5 µM [4] | viability at 25 µM [4] | IC50 ([6]; Caco-2, 24 h) | IC50 ([6]; Caco-2, 48 h) | IC50 ([6]; Caco-2, 72 h) | IC50 ([7]; 24 h) | IC50 ([7]; 48 h) | IC50 ([7]; 72 h) | also measured |
| --- | --- | --- | --- | --- | --- | --- | --- | --- | --- | --- | --- | --- | --- | --- | --- | --- | --- | --- | --- | --- | --- |
| CC(=O)Oc1ccccc1C(=O)O [ASA, aspirin, reference compound] | 86.7 ± 5.4% | 63.8 ± 3.1% | 68.6 ± 5.1% | > 50 µM | > 50 µM | 73.1 ± 13% | 57.2 ± 11.3% | 35.5 ± 7.7% | > 50 µM | 89.8 ± 11% | 85.3 ± 25.1% | 90.9 ± 24.6% | 44.1 ± 4.4% | 51.1 ± 1.6% | > 50 µM | > 50 µM | > 50 µM | > 50 µM | > 50 µM | > 50 µM | TGI ([2]; HT-29, 24 h): >50 µM; TGI ([2]; HT-29, 48 h): >50 µM; TGI ([2]; HT-29, 72 h): >50 µM; GI50 ([2]; HT-29, 24 h): > 50 µM; GI50 ([2]; HT-29, 48 h): > 50 µM; GI50 ([2]; HT-29, 72 h): > 50 µM; viability at 50 µM [4]: 58.3 ± 3.6%; IC50 ([5]; HCT-116, 24 h, read-out: IC50): > 50 µM; IC50 ([5]; HCT-116, 48 h, read-out: IC50): > 50 µM; IC50 ([5]; HCT-116, 72 h, read-out: IC50): > 50 µM |
| CC[Se]C(=O)c1ccccc1OC(C)=O [Compound 1b, 2-((ethylselanyl)carbonyl)phenyl acetate] | – | – | – | > 50 µM | 4.2 ± 0.4 µM | – | – | – | 4.2 ± 0.9 µM | – | – | – | – | – | > 50 µM | > 50 µM | > 50 µM | > 50 µM | > 50 µM | > 50 µM | IC50 ([5]; HCT-116, 24 h, read-out: IC50): > 50 µM; IC50 ([5]; HCT-116, 48 h, read-out: IC50): 13.2 ± 2.6 µM; IC50 ([5]; HCT-116, 72 h, read-out: IC50): 6.8 ± 4.2 µM; effect on CACO-2 viability [6]: no effect |
| CC(=O)Oc1ccccc1C(=O)[Se]Cc1ccccc1 [Compound 1c, 2-((benzylselanyl)carbonyl)phenyl acetate] | – | – | – | > 50 µM | 4.8 ± 0.2 µM | – | – | – | 4.8 ± 0.1 µM | – | – | – | – | – | > 50 µM | > 50 µM | 11.8 ± 5.9 µM | > 50 µM | 10.4 ± 0.1 µM | 5 ± 0.1 µM | IC50 ([5]; HCT-116, 24 h): > 50 µM; IC50 ([5]; HCT-116, 48 h): 8 ± 2.1 µM; IC50 ([5]; HCT-116, 72 h): 8.2 ± 2.2 µM |
| C[Se]C(=O)c1cc(-c2ccc(F)cc2F)ccc1O [Compound 2a, Se-methyl 2′,4′-difluoro-4-hydroxy-[1,1′-biphenyl]-3-carboselenoate] | 53.5 ± 9.7% | 38.5 ± 8.1% | 39.1 ± 11.1% | – | – | 46.6 ± 11.9% | 23.5 ± 7.2% | 28.4 ± 2.7% | – | 53.9 ± 14.1% | 40.7 ± 8.3% | 39.5 ± 2.7% | 96.8 ± 19.8% | 80 ± 10.7% | – | – | – | – | – | – | viability at 50 µM [4]: 79.9 ± 9% |
| COc1ccc2cc([C@H](C)C(=O)[Se]C)ccc2c1 [Compound 3a, Se-methyl (S)-2-(6-methoxynaphthalen-2-yl)propaneselenoate] | 46.7 ± 9.7% | 34.4 ± 6.3% | 30.5 ± 6% | – | – | 52.2 ± 30.9% | 41.8 ± 26.4% | 46.4 ± 24.7% | – | 56.2 ± 18.4% | 35 ± 16.1% | 31.4 ± 23.6% | 48.3 ± 5.4% | 42.4 ± 2.7% | – | – | – | – | – | – | viability at 50 µM [4]: 34.3 ± 1.3% |
| C[Se]C(=O)c1ccccc1Nc1cccc(C)c1C [Compound 4a, Se-methyl 2-((2,3-dimethylphenyl)amino)benzoselenoate] | 47.5 ± 5.9% | 26.3 ± 3.9% | 22.6 ± 3% | – | – | 41.6 ± 6.4% | 16.6 ± 4.7% | 22.6 ± 0.7% | – | 58 ± 14.1% | 29.7 ± 10.9% | 32 ± 6.5% | 98.7 ± 0.4% | 99.4 ± 0.3% | – | – | – | – | – | – | viability at 50 µM [4]: 100% |
| CC[Se]C(=O)Cc1c(C)n(C(=O)c2ccc(Cl)cc2)c2ccc(OC)cc12 [Compound 5b, Se-ethyl 2-(1-(4-chlorobenzoyl)-5-methoxy-2-methyl-1H-indol-3-yl)ethane-selenoate] | – | – | – | > 50 µM | 4.9 ± 0.3 µM | – | – | – | 4.9 ± 0.1 µM | – | – | – | – | – | > 50 µM | > 50 µM | > 50 µM | > 50 µM | 30.8 ± 3.5 µM | 33.3 ± 16.9 µM | IC50 ([5]; HCT-116, 24 h, read-out: IC50): > 50 µM; IC50 ([5]; HCT-116, 48 h, read-out: IC50): 6.3 ± 1.6 µM; IC50 ([5]; HCT-116, 72 h, read-out: IC50): 8.2 ± 1.7 µM; effect on CACO-2 viability [6]: no effect |
| COc1ccc2c(c1)c(CC(=O)[Se]Cc1ccccc1)c(C)n2C(=O)c1ccc(Cl)cc1 [Compound 5c, Se-benzyl 2-(1-(4-chlorobenzoyl)-5-methoxy-2-methyl-1H-indol-3-yl)ethane-selenoate] | – | – | – | > 50 µM | 4.2 ± 0.5 µM | – | – | – | 4 ± 1 µM | – | – | – | – | – | > 50 µM | > 50 µM | > 50 µM | > 50 µM | 26.2 ± 4.6 µM | 11.5 ± 0.9 µM | IC50 ([5]; HCT-116, 24 h): > 50 µM; IC50 ([5]; HCT-116, 48 h): 14 ± 6.6 µM; IC50 ([5]; HCT-116, 72 h): 5.5 ± 1.2 µM |
| CC[Se]C(=O)CC1=C(C)/C(=C/c2ccc([S+](C)[O-])cc2)c2ccc(F)cc21 (stereo not drawn) [Compound 6b, Se-ethyl (Z)-2-(5-fluoro-2-methyl-1-(4-(methylsulfinyl)benzylidene)-1H-inden-3-yl)ethaneselenoate] | – | – | – | 10.9 ± 1.4 µM | 4.9 ± 0.2 µM | – | – | – | 5 ± 0.1 µM | – | – | – | – | – | > 50 µM | > 50 µM | > 50 µM | > 50 µM | 41.8 ± 13.8 µM | 12.4 ± 0.5 µM | IC50 ([5]; HCT-116, 24 h, read-out: IC50): > 50 µM; IC50 ([5]; HCT-116, 48 h, read-out: IC50): 6.2 ± 0.9 µM; IC50 ([5]; HCT-116, 72 h, read-out: IC50): 7.2 ± 1 µM; effect on CACO-2 viability [6]: no effect |
| CC1=C(CC(=O)[Se]Cc2ccccc2)c2cc(F)ccc2/C1=C\c1ccc([S+](C)[O-])cc1 (stereo not drawn) [Compound 6c, Se-benzyl (Z)-2-(5-fluoro-2-methyl-1-(4-(methylsulfinyl)benzylidene)-1H-inden-3-yl)ethaneselenoate] | – | – | – | > 50 µM | 5.1 ± 0.1 µM | – | – | – | 5.2 ± 0.2 µM | – | – | – | – | – | > 50 µM | 11.4 ± 1.6 µM | 14.2 ± 3.9 µM | > 50 µM | > 50 µM | 35.8 ± 5.9 µM | IC50 ([5]; HCT-116, 24 h): > 50 µM; IC50 ([5]; HCT-116, 48 h): 7.8 ± 1.8 µM; IC50 ([5]; HCT-116, 72 h): 7 ± 0.8 µM |
| O=C(O)c1cc(-c2ccc(F)cc2F)ccc1O [Dfl, diflunisal, reference compound] | 77.9 ± 5.4% | 75.5 ± 6.9% | 68.5 ± 9.3% | – | – | 93.2 ± 5.7% | 82.7 ± 9.8% | 74.7 ± 2% | – | 71 ± 6.9% | 71.5 ± 9.1% | 78.9 ± 6.4% | 85.2 ± 3.6% | 94.3 ± 3.9% | – | – | – | – | – | – | viability at 50 µM [4]: 88.7 ± 7.8% |
| COc1ccc2c(c1)c(CC(=O)O)c(C)n2C(=O)c1ccc(Cl)cc1 [Inn, indomethacin, reference compound] | 94.1 ± 8.3% | 85.9 ± 10.5% | 83.2 ± 6.3% | > 50 µM | > 50 µM | 100 ± 8.4% | 99.8 ± 14.2% | 98.3 ± 13.4% | > 50 µM | 89.6 ± 12.3% | 97.6 ± 21% | 96.2 ± 18.5% | 76 ± 23.7% | 70.4 ± 19.8% | > 50 µM | > 50 µM | > 50 µM | > 50 µM | > 50 µM | > 50 µM | TGI ([2]; HT-29, 24 h): >50 µM; TGI ([2]; HT-29, 48 h): >50 µM; TGI ([2]; HT-29, 72 h): >50 µM; GI50 ([2]; HT-29, 24 h): > 50 µM; GI50 ([2]; HT-29, 48 h): > 50 µM; GI50 ([2]; HT-29, 72 h): > 50 µM; viability at 50 µM [4]: 66.2 ± 14%; IC50 ([5]; HCT-116, 24 h, read-out: IC50): > 50 µM; IC50 ([5]; HCT-116, 48 h, read-out: IC50): > 50 µM; IC50 ([5]; HCT-116, 72 h, read-out: IC50): > 50 µM |
| Cc1cccc(Nc2ccccc2C(=O)O)c1C [Mf, mefenamic acid, reference compound] | 72.4 ± 5.6% | 61.9 ± 10.9% | 65.9 ± 5.1% | – | – | 91.9 ± 4.9% | 75.7 ± 4.1% | 64.9 ± 4.5% | – | 100% | 100% | 100% | 71.4 ± 15.5% | 44.9 ± 1.4% | – | – | – | – | – | – | viability at 50 µM [4]: 39.4 ± 1.3% |
